Experimental data taken from ChEMBL document CHEMBL1201862, “PubChem BioAssay data set” (2004).
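Test compounds were applied to cells in 96-well plates for 48 hours at 5 doses. GI50: concentration for 50% inhibition of growth.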 Calls of active or inactive are those of the source. Rule as the data show it: active = GI50 up to about 1.1 µM and inactive = higher.

Key:
Assay in all cases: growth of human tumour cells (NCI), 48 h
OVCAR-8 = test system: OVCAR-8
Hs-578T = test system: Hs-578T
K562 = test system: K562
UACC-257 = test system: UACC-257
SR = test system: SR
SF-295 = test system: SF-295
EKVX = test system: EKVX
IGROV-1 = test system: IGROV-1
MDA-MB-435 = test system: MDA-MB-435
NCI-H522 = test system: NCI-H522
SN12C = test system: SN12C
HOP-62 = test system: HOP-62
SW-620 = test system: SW-620
NCI/ADR-RES = test system: NCI/ADR-RES
HCT-15 = test system: HCT-15
KM12 = test system: KM12
A549 = test system: A549
SF-268 = test system: SF-268
COLO 205 = test system: COLO 205
OVCAR-4 = test system: OVCAR-4

SMILES | GI50 (OVCAR-8) | GI50 (Hs-578T) | GI50 (K562) | GI50 (UACC-257) | GI50 (SR) | GI50 (SF-295) | GI50 (EKVX) | GI50 (IGROV-1) | GI50 (MDA-MB-435) | GI50 (NCI-H522) | GI50 (SN12C) | GI50 (HOP-62) | GI50 (SW-620) | GI50 (NCI/ADR-RES) | GI50 (HCT-15) [µM] | GI50 (KM12) | GI50 (A549) | GI50 (SF-268) | GI50 (COLO 205) | GI50 (OVCAR-4)
O=C1C=C2C(=NC34CCCCC3C(c3ccccc3)C3=C(c5ccccc5CC3)N24)c2ccccc21 (stereo not given) | > 10 µM (inactive) | > 10 µM (inactive) | > 10 µM (inactive) | > 10 µM (inactive) | 8.22 µM (inactive) | > 10 µM (inactive) | > 10 µM (inactive) | > 10 µM (inactive) | > 10 µM (inactive) | > 10 µM (inactive) | > 10 µM (inactive) | > 10 µM (inactive) | > 10 µM (inactive) | > 10 µM (inactive) | > 10 | > 10 µM (inactive) | > 10 µM (inactive) | > 10 µM (inactive) | > 10 µM (inactive) | > 10 µM (inactive)
O=c1c2cc([N+](=O)[O-])ccc2[nH]n1Cc1ccccc1Cl | 75.7 µM (inactive) | 48.8 µM (inactive) | 48.8 µM (inactive) | 98.6 µM (inactive) | 43.5 µM (inactive) | > 100 µM (inactive) | 30.2 µM (inactive) | 80.2 µM (inactive) | 64.9 µM (inactive) | 32.7 µM (inactive) | 86.1 µM (inactive) | 38.1 µM (inactive) | 88.9 µM (inactive) | 40.6 µM (inactive) | > 100 | 55.7 µM (inactive) | 42.1 µM (inactive) | > 100 µM (inactive) | 73.3 µM (inactive) | > 100 µM (inactive)
N#Cc1cc2c(cc1C#N)SCCSCCCSCCS2 | 12.2 µM (inactive) | 3.96 µM (inactive) | > 100 µM (inactive) | > 87.9 µM (inactive) | 36.4 µM (inactive) | 5.47 µM (inactive) | > 48.9 µM (inactive) | 24.7 µM (inactive) | > 100 µM (inactive) | 25.8 µM (inactive) | 41.9 µM (inactive) | 1.71 µM (inactive) | 29.4 µM (inactive) | 30.5 µM (inactive) | 14.6 | > 100 µM (inactive) | > 83.9 µM (inactive) | 10.3 µM (inactive) | > 84.3 µM (inactive) | 8.93 µM (inactive)
COc1cc(Br)c(CC2C3=C(CCN2C(=O)C2CCC2)CC2(CC3)OCCO2)cc1O (stereo not given) | > 100 µM (inactive) | 33.8 µM (inactive) | 31.6 µM (inactive) | 32.5 µM (inactive) | 28.1 µM (inactive) | 49.7 µM (inactive) | 34.2 µM (inactive) | 58.7 µM (inactive) | 23.6 µM (inactive) | 27.7 µM (inactive) | 84.1 µM (inactive) | > 100 µM (inactive) | 80.2 µM (inactive) | 26.5 µM (inactive) | 27.9 | 50.6 µM (inactive) | 57.9 µM (inactive) | 83.9 µM (inactive) | 18.2 µM (inactive) | 34.4 µM (inactive)
